Data from patent publication US20250346600A1, “TRICYCLIC DERIVATIVES AND RELATED USES” (MOMA Therapeutics, Inc., priority 2023, published 2025).
Read-outs that look alike come from different tables or passages of the source.

Tests used:
[1] = test system: HT29 cells; assay: HT29 (MSS) 7 day viability, CellTiter Glo; type: cell-based; details: 7 days, read-out: HT29 (MSS) Viability 7 Day CTGAbs AC50
Method in brief: (§1)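 Seven-day viability is assessed with CellTiter Glo after compounds, diluted in ten 3-fold steps in DMSO, are exposed to HCT116 (50 cells/well) or HT29 (500 cells/well). Reported IC50 is the geometric mean of at least two independent runs.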

[2] = target: T1, Full length WRN protein (aa 2-1432) (Homo sapiens (Human), UniProt Q14191); assay: WRN ATPase ADP-Glo biochemical assay, Assay Format A (10 μM ATP); details: 0.25 nM WRN, 100 nM C6.18 ssDNA, 30 min preincubation, read-out: ATPase ADPGlo AC50 (uM)- Assay Format A
T1 sequence (Q14191 2-1432): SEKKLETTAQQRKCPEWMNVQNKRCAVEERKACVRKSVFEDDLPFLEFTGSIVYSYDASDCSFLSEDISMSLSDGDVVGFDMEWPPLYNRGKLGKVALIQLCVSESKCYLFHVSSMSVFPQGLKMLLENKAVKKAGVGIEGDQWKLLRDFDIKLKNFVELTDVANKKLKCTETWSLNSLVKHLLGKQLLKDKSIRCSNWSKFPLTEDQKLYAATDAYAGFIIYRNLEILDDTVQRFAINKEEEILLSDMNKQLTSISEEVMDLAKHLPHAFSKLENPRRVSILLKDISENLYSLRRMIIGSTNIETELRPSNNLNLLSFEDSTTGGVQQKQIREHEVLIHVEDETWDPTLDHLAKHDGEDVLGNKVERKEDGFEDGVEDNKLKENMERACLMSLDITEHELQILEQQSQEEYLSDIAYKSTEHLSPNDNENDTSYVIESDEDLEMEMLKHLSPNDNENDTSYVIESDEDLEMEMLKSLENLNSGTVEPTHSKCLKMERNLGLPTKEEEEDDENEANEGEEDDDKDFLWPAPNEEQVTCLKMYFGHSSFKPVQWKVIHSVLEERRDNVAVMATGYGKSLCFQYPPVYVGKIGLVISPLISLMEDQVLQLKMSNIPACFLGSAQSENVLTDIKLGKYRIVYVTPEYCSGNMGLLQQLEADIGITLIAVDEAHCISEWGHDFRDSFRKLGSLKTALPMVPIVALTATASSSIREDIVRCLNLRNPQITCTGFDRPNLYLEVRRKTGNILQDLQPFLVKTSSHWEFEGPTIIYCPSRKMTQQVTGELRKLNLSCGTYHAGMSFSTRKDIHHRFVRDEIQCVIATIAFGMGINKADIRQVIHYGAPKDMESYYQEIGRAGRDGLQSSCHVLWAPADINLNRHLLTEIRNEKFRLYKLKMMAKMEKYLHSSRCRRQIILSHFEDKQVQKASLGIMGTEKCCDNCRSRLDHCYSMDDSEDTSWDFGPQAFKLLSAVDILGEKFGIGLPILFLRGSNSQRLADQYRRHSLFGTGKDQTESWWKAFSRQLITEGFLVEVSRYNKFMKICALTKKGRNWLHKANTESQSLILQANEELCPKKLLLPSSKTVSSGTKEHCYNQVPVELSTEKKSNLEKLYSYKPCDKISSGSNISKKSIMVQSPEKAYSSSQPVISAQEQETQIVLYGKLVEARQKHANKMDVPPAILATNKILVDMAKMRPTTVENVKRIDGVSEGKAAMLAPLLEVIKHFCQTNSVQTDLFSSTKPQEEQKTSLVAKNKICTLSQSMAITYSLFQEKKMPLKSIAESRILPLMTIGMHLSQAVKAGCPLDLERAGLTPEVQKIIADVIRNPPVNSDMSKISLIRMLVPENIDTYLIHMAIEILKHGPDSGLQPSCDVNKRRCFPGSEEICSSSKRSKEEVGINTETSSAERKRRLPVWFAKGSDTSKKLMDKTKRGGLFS
Method in brief: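 Sf9-expressed FLAG-AVI-TEV-tagged WRN (0.5 nM) preincubated 30 min with compound (11-point 3-fold dilution). Reaction started with 200 nM C6.18 39-mer ssDNA and 20 μM ATP (addition concentrations), run 30 min at room temperature. ADP measured by ADP-Glo luminescence; IC50 from four-parameter fit, geometric mean of ≥2 runs.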

[3] = target: T1, Full length WRN protein (aa 2-1432); assay: WRN ATPase ADP-Glo biochemical assay, Assay Format B (100 μM ATP); details: 0.25 nM WRN, 100 nM C6.18 ssDNA, 60 min preincubation, read-out: ATPase ADPGlo AC50 (uM)- Assay Format B
[4] = test system: HCT116 cells; assay: HCT116 (MSI) 7 day viability, CellTiter Glo; type: cell-based; details: 7 days, read-out: HCT116 (MSI) Viability 7 Day Abs AC50
Method in brief: as §1

Row | SMILES | AC50 ([1]; Homo sapiens, HT-29, 168 h) | AC50 [2] | AC50 [3] | AC50 ([4]; Homo sapiens, HCT-116, 168 h) | AC50 [1] | AC50 [4]
1 | C=CC(=O)N1CCOc2nn(-c3ccc(C(C)C)cc3O)c3c2C(C1)N(C(=O)c1cnc(C(F)(F)F)c(O)c1)CC3 (stereo not drawn) [Compound 45, 1-(2-(2-hydroxy-4-isopropylphenyl)-5-(5-hydroxy-6-(trifluoromethyl)nicotinoyl)-2,3,4,5,5a,6,8,9-octahydro-7H-10-oxa-1,2,5,7-tetraazacycloocta[cd]inden-7-yl)prop-2-en-1-one] | > 3000 nM | 0.0015 to 0.005 µM | 0.015 to 0.055 µM | > 1000 nM | – | –
2 | C=CC(=O)N1CCOc2nn(-c3ccc(C(C)C)cc3)c3c2C(C1)N(C(=O)c1ccc(Br)c2[nH]cnc12)CC3 (stereo not drawn) [Compound 46, 1-(5-(7-bromo-1H-benzo[d]imidazole-4-carbonyl)-2-(4-isopropylphenyl)-2,3,4,5,5a,6,8,9-octahydro-7H-10-oxa-1,2,5,7-tetraazacycloocta[cd]inden-7-yl)prop-2-en-1-one] | > 3000 nM | 0.0015 to 0.005 µM | 0.015 to 0.055 µM | 1 to 100 nM | – | –
3 | C=CC(=O)N1CCOc2nn(-c3ccc(C(C)C)cc3)c3c2C(C1)N(C(=O)c1cnc(C(F)(F)F)c(O)c1)CC3 (stereo not drawn) [Compound 47, 1-(5-(5-hydroxy-6-(trifluoromethyl)nicotinoyl)-2-(4-isopropylphenyl)-2,3,4,5,5a,6,8,9-octahydro-7H-10-oxa-1,2,5,7-tetraazacycloocta[cd]inden-7-yl)prop-2-en-1-one] | > 3000 nM | 0.005 to 0.015 µM | > 0.055 µM | > 1000 nM | – | –
4 | C=CC(=O)N1CCOc2nn(-c3ccc(C4CC4)cc3)c3c2C(C1)N(C(=O)c1ccc(Br)c2[nH]cnc12)CC3 (stereo not drawn) [Compound 49, 1-(5-(7-bromo-1H-benzo[d]imidazole-4-carbonyl)-2-(4-cyclopropylphenyl)-2,3,4,5,5a,6,8,9-octahydro-7H-10-oxa-1,2,5,7-tetraazacycloocta[cd]inden-7-yl)prop-2-en-1-one] | > 3000 nM | < 0.0015 µM | 0.015 to 0.055 µM | 1 to 100 nM | – | –
5 | C=CC(=O)N1CCOc2nn(-c3ccc(C4CC4)cc3)c3c2C(C1)N(C(=O)c1ccc(C(F)(F)F)c2[nH]ncc12)CC3 (stereo not drawn) [Compound 50, 1-(2-(4-cyclopropylphenyl)-5-(7-(trifluoromethyl)-1H-indazole-4-carbonyl)-2,3,4,5,5a,6,8,9-octahydro-7H-10-oxa-1,2,5,7-tetraazacycloocta[cd]inden-7-yl)prop-2-en-1-one] | > 3000 nM | 0.0015 to 0.005 µM | 0.015 to 0.055 µM | 100 to 250 nM | – | –
6 | C=CC(=O)N1CC(C)Oc2nn(-c3ccc(C(C)C)cc3)c3c2C(C1)N(C(=O)c1ccc(Br)c2[nH]cnc12)CC3 (stereo not drawn) [Compound 52, 1-(5-(7-bromo-1H-benzo[d]imidazole-4-carbonyl)-2-(4-isopropylphenyl)-9-methyl-2,3,4,5,5a,6,8,9-octahydro-7H-10-oxa-1,2,5,7-tetraazacycloocta[cd]inden-7-yl)prop-2-en-1-one] | > 3000 nM | 0.005 to 0.015 µM | > 0.055 µM | 250 to 500 nM | – | –
7 | C=CC(=O)N1CC(C)Oc2nn(-c3ccc(C(C)C)cc3)c3c2C(C1)N(C(=O)c1ccc(Br)c2[nH]cnc12)CC3 (stereo not drawn) [Compound 53, 1-(5-(7-bromo-1H-benzo[d]imidazole-4-carbonyl)-2-(4-isopropylphenyl)-9-methyl-2,3,4,5,5a,6,8,9-octahydro-7H-10-oxa-1,2,5,7-tetraazacycloocta[cd]inden-7-yl)prop-2-en-1-one] | – | 0.015 to 0.055 µM | > 0.055 µM | – | > 3000 nM | 500 to 1000 nM
8 | C=CC(=O)N1CC(F)Oc2nn(-c3ccc(C(C)C)cc3)c3c2C(C1)N(C(=O)c1ccc(Br)c2[nH]cnc12)CC3 (stereo not drawn) [Compound 54, 1-(5-(7-bromo-1H-benzo[d]imidazole-4-carbonyl)-9-fluoro-2-(4-isopropylphenyl)-2,3,4,5,5a,6,8,9-octahydro-7H-10-oxa-1,2,5,7-tetraazacycloocta[cd]inden-7-yl)prop-2-en-1-one] | > 3000 nM | < 0.0015 µM | 0.005 to 0.015 µM | – | – | > 1000 nM
9 | C=CC(=O)N1CC(F)Oc2nn(-c3ccc(C(C)C)cc3)c3c2C(C1)N(C(=O)c1ccc(Br)c2[nH]cnc12)CC3 (stereo not drawn) [Compound 55, 1-(5-(7-bromo-1H-benzo[d]imidazole-4-carbonyl)-9-fluoro-2-(4-isopropylphenyl)-2,3,4,5,5a,6,8,9-octahydro-7H-10-oxa-1,2,5,7-tetraazacycloocta[cd]inden-7-yl)prop-2-en-1-one] | – | < 0.0015 µM | 0.015 to 0.055 µM | – | > 3000 nM | 100 to 250 nM
10 | C=CC(=O)N1CCc2nn(-c3ccc(C(C)C)c(F)c3N)c3c2C(C1)N(C(=O)c1cnc(C(F)(F)F)c(O)c1)CC3 (stereo not drawn) [Compound 57, 1-(2-(2-amino-3-fluoro-4-isopropylphenyl)-5-(5-hydroxy-6-(trifluoromethyl)nicotinoyl)-2,3,4,5,5a,6,8,9-octahydro-7H-1,2,5,7-tetraazabenzo[cd]azulen-7-yl)prop-2-en-1-one] | > 3000 nM | 0.0015 to 0.005 µM | 0.015 to 0.055 µM | 100 to 250 nM | – | –
11 | C=CC(=O)N1CCc2nn(-c3ccc(C(C)C)cc3)c3c2C(C1)N(C(=O)c1ccc(C(F)(F)F)c(=O)[nH]1)CC3 (stereo not drawn) [Compound 58, 6-(7-acryloyl-2-(4-isopropylphenyl)-3,4,5,5a,6,7,8,9-octahydro-2H-1,2,5,7-tetraazabenzo[cd]azulene-5-carbonyl)-3-(trifluoromethyl)pyridin-2(1H)-one] | > 3000 nM | 0.0015 to 0.005 µM | 0.015 to 0.055 µM | 100 to 250 nM | – | –
12 | C=CC(=O)N1CCc2nn(-c3ccc(C(C)C)cc3)c3c2C(C1)N(C(=O)c1cnc(C(F)(F)F)c(OCC(N)=O)c1)CC3 (stereo not drawn) [Compound 59, 2-((5-(7-acryloyl-2-(4-isopropylphenyl)-3,4,5,5a,6,7,8,9-octahydro-2H-1,2,5,7-tetraazabenzo[cd]azulene-5-carbonyl)-2-(trifluoromethyl)pyridin-3-yl)oxy)acetamide] | > 3000 nM | 0.0015 to 0.005 µM | 0.015 to 0.055 µM | 100 to 250 nM | – | –
13 | C=CC(=O)N1CCc2nn(-c3ccc(C(C)C)cc3)c3c2C(C1)N(C(=O)c1cnc(C(F)(F)F)c(OC2CNC2)c1)CC3 (stereo not drawn) [Compound 60, 1-(5-(5-(azetidin-3-yloxy)-6-(trifluoromethyl)nicotinoyl)-2-(4-isopropylphenyl)-2,3,4,5,5a,6,8,9-octahydro-7H-1,2,5,7-tetraazabenzo[cd]azulen-7-yl)prop-2-en-1-one] | > 3000 nM | 0.005 to 0.015 µM | > 0.055 µM | > 1000 nM | – | –
14 | C=CC(=O)N1CCc2nn(-c3ccc(C(C)C)cc3)c3c2C(C1)N(C(=O)c1ccc(Br)cc1C(N)=O)CC3 (stereo not drawn) [Compound 61, 2-(7-acryloyl-2-(4-isopropylphenyl)-3,4,5,5a,6,7,8,9-octahydro-2H-1,2,5,7-tetraazabenzo[cd]azulene-5-carbonyl)-5-bromobenzamide] | > 3000 nM | 0.005 to 0.015 µM | > 0.055 µM | 250 to 500 nM | – | –
15 | C=CC(=O)N1CCc2nn(-c3ccc(C4CCC4)cc3O)c3c2C(C1)N(C(=O)c1cnc(Br)c(OC(F)(F)F)c1)CC3 (stereo not drawn) [Compound 62, 1-(5-(6-bromo-5-(trifluoromethoxy)nicotinoyl)-2-(4-cyclobutyl-2-hydroxyphenyl)-2,3,4,5,5a,6,8,9-octahydro-7H-1,2,5,7-tetraazabenzo[cd]azulen-7-yl)prop-2-en-1-one] | > 3000 nM | 0.0015 to 0.005 µM | > 0.055 µM | 100 to 250 nM | – | –
16 | C=CC(=O)N1CCc2nn(-c3ccc(C4CC4)c(F)c3OC)c3c2C(C1)N(C(=O)c1cnc(C(F)(F)F)c(O)c1)CC3 (stereo not drawn) [Compound 63, 1-(2-(4-cyclopropyl-3-fluoro-2-methoxyphenyl)-5-(5-hydroxy-6-(trifluoromethyl)nicotinoyl)-2,3,4,5,5a,6,8,9-octahydro-7H-1,2,5,7-tetraazabenzo[cd]azulen-7-yl)prop-2-en-1-one] | > 3000 nM | 0.0015 to 0.005 µM | 0.015 to 0.055 µM | 500 to 1000 nM | – | –
17 | C=CC(=O)N1CCc2nn(-c3ccc(C(C)C)cc3)c3c2C(C1)N(C(=O)c1ccc(Br)c2c1CCO2)CC3 (stereo not drawn) [Compound 65, 1-(5-(7-bromo-2,3-dihydrobenzofuran-4-carbonyl)-2-(4-isopropylphenyl)-2,3,4,5,5a,6,8,9-octahydro-7H-1,2,5,7-tetraazabenzo[cd]azulen-7-yl)prop-2-en-1-one] | > 3000 nM | < 0.0015 µM | 0.015 to 0.055 µM | 1 to 100 nM | – | –
18 | C=CC(=O)N1CCc2nn(-c3ccc(C4CCC4)c(F)c3)c3c2C(C1)N(C(=O)c1cnc(C(F)(F)F)c(O)c1)CC3 (stereo not drawn) [Compound 66, 1-(2-(4-cyclobutyl-3-fluorophenyl)-5-(5-hydroxy-6-(trifluoromethyl)nicotinoyl)-2,3,4,5,5a,6,8,9-octahydro-7H-1,2,5,7-tetraazabenzo[cd]azulen-7-yl)prop-2-en-1-one] | > 3000 nM | < 0.0015 µM | 0.005 to 0.015 µM | 1 to 100 nM | – | –
